# Test results from patent US20190093170A1, “USE OF TRANSLATIONAL PROFILING TO IDENTIFY TARGET MOLECULES FOR THERAPEUTIC TREATMENT” (THE REGENTS OF THE UNIVERSITY OF CALIFORNIA, priority 2013, published 2019).
# Tested on: Pten^L/L prostate cancer mouse model
# Assay: Pharmacological treatment of Pten^L/L mice (preclinical trial; IHC, immunofluorescence, histology, MRI, lymph node metastasis)
# Assay type: in vivo
# Settings: 28 days, RAD001 10 mg/kg daily
# From the text: Weight measurements were taken every 3 days to monitor for toxicity. For the 28-day study, mice were imaged via MRI at day 0 and day 28 in a 14-T GE MR scanner (GE Healthcare).
# Whole mouse prostates were removed from wild-type and Pten^L/L mice, microdissected, and frozen in liquid nitrogen. Frozen tissues were subsequently manually disassociated using a biopulverizer (Biospec) and additionally processed for protein and mRNA analysis as described above.
# Prostates and lymph nodes were dissected from mice within 2 hr of the indicated treatment and fixed in 10% formalin overnight at 4° C. Tissues were subsequently dehydrated in ethanol (Sigma) at room temperature, mounted into paraffin blocks, and sectioned at 5 μm. Specimens were de-paraffinized and rehydrated using CitriSolv (Fisher) followed by serial ethanol washes. […] Sections were washed in distilled water followed by TBS washes. The sections were then incubated in 5% goat serum, 1% BSA in TBS for 1 hr at room temperature. Various primary antibodies were used, including those specific for keratin 5 (Covance), cytokeratin 8 (Abcam and Covance), YB1 (Abcam), vimentin (Abcam), MTA1 (Cell signaling), CD44 (BD Pharmingen), and the androgen receptor (Epitomics), which were diluted 1:50-1:500 in blocking solution and incubated on sections overnight at 4° C. Specimens were then washed in TBS and incubated with the appropriate Alexa 488 and 594 labeled secondary (Invitrogen) at 1:500 for 2 hr at room temperature, with the exception of YB1 which was incubated with biotinylated anti-rabbit secondary (Vector) followed by incubation with Alexa 594 labeled Streptavidin (Invitrogen). A final set of washes in TBS was completed at room temperature followed by mounting with DAPI Hardset Mounting Medium (Vector Lab). A Zeiss Spinning Disc confocal (Zeiss, CSU-X1) was used to image the sections at 40×-100×. Individual prostate cells were quantified for mean fluorescence intensity (m.f.i.) using the Axiovision (Zeiss, Release 4.8) densitometric tool.
# Mouse lymph nodes were processed as described above and stained for CK8 and androgen receptor. Lymph nodes were imaged using a Zeiss AX10 microscope. Metastases were identified and areas were measured using the Axiovision (Zeiss, Release 4.8) measurement tool.
# Immunohistochemistry was performed as described above (see “Immunofluorescence”) with the exception that immediately after antigen […] and TBS washes, specimens were incubated in 3% hydrogen peroxide in TBS followed by TBS washes. The following primary antibodies were used: phospho-AKT^S473 (Cell Signaling), phospho-rpS6^S240/244 (Cell Signaling), phospho-4EBP1^T37/46 (Cell Signaling), phospho-histone H3 (Upstate), and cleaved caspase (Cell Signaling). […] The protein of interest was detected using DAB (Sigma). […]
# [1] = ATP site inhibitor of mTOR 1 mg/kg daily
structure (smiles),measurement,setting,value
CO[C@H]1C[C@@H]2CC[C@@H](C)[C@@](O)(O2)C(=O)C(=O)N2CCCC[C@H]2C(=O)O[C@H]([C@H](C)C[C@@H]2CC[C@@H](OCCO)[C@H](OC)C2)CC(=O)[C@H](C)/C=C(\C)[C@@H](O)[C@@H](OC)C(=O)[C@H](C)C[C@H](C)/C=C/C=C/C=C/1C [RAD001],4EBP1 and p70S6K1/2 phosphorylation,[1],only decreased p70S6K1/2 phosphorylation levels
same,apoptosis (cleaved caspase 3),[1],no significant effect
same,proliferation (phospho-histone H3),[1],limited decrease in cell proliferation
same,regression of PIN lesions,,only partial regression of PIN lesions
